Strand notation (5' to 3'): a small letter for the sugar, then the base; units joined by * are phosphorothioate-linked, units joined directly phosphodiester-linked; [ ] holds rarer units or linkages, { } end groups; capitals alone tell only the bases. e = 2'-O-(2-methoxyethyl) (MOE); k = constrained ethyl (cEt); [5mC] = 5-methylcytosine; d = 2'-deoxy (DNA)

The data set has as its system human PKK mRNA. The data set is described as follows: Antisense inhibition of human PKK mRNA in HepaRG cells, 1,000 nM, MOE/deoxy/cEt oligonucleotides (Example 3). The data set is classed as cell-based. As to conditions: Table 21 experiment; HepaRG cells, electroporation with 1,000 nM antisense oligonucleotide, approx. 24 hours; PKK mRNA by RT-PCR (RTS3454), relative to untreated control cells. As for the experimental part:
Additional antisense oligonucleotides were designed targeting a PKK nucleic acid and were tested for their effects on PKK mRNA in vitro.
The chimeric antisense oligonucleotides in the tables below were designed as deoxy, MOE and cEt gapmers. The gapmers are 16 nucleosides in length wherein the nucleoside have either a MOE sugar modification, a cEt sugar modification, or a deoxy modification. The ‘Chemistry’ column describes the sugar modifications of each oligonucleotide. ‘k’ indicates an cEt sugar modification; the number indicates the number of deoxynucleosides; otherwise, indicates a deoxynucleoside; and ‘e’ indicates a 2′-O-methoxyethyl modification. The internucleoside linkages throughout each gapmer are phosphorothioate linkages. All cytosine residues throughout each oligonucleotide are 5-methylcytosines. “Start site” indicates the 5′-most nucleoside to which the gapmer is targeted in the human gene sequence. “Stop site” indicates the 3′-most nucleoside to which the gapmer is targeted in the human gene sequence.
Cultured HepaRG™ cells at a density of 20,000 cells per well were transfected using electroporation with 1,000 nM antisense oligonucleotide. After a treatment period of approximately 24 hours, RNA was isolated from the cells and PKK mRNA levels were measured by quantitative real-time PCR. Human primer probe set RTS3454 was used to measure mRNA levels. ISIS 531231 was also included in this assay. PKK mRNA levels were adjusted according to total RNA content, as measured by RIBOGREEN®. The antisense oligonucleotides were tested in a series of experiments that had similar culture conditions. Results are presented as percent inhibition of PKK, relative to untreated control cells.
What is called % inhibition is how much of the control response was suppressed. The low end stands for little suppression, the high end for strong suppression. Consider “547822 (eG*e[5mC]*kA*dA*d[5mC]*d[5mC]*dA*dA*dA*d[5mC]*d[5mC]*dT*dT*kT*kT*e[5mC]; antisense) [compound 547822]”, for which the “% inhibition” value turned out to be 71%.

As for “547823 (eA*eG*k[5mC]*dA*dA*d[5mC]*d[5mC]*dA*dA*dA*d[5mC]*d[5mC]*dT*kT*kT*eT; antisense) [compound 547823]”, the “% inhibition” value was determined as 51%. For “547825 (eT*e[5mC]*kG*dA*dT*dG*dT*dA*d[5mC]*dT*dT*dT*dT*kG*kG*e[5mC]; antisense) [compound 547825]”, the “% inhibition” value came out at 59%.

As for “547826 (eT*eT*k[5mC]*dG*dA*dT*dG*dT*dA*d[5mC]*dT*dT*dT*kT*kG*eG; antisense) [compound 547826]”, the “% inhibition” value is recorded as 31%. For “547827 (eG*eT*kT*d[5mC]*dG*dA*dT*dG*dT*dA*d[5mC]*dT*dT*kT*kT*eG; antisense) [compound 547827]” the value was 47%; for “547828 (e[5mC]*e[5mC]*kT*dG*dT*dT*d[5mC]*dG*dA*dT*dG*dT*dA*k[5mC]*kT*eT; antisense) [compound 547828]”, 63%. For the substance “547829 (eA*e[5mC]*k[5mC]*dT*dG*dT*dT*d[5mC]*dG*dA*dT*dG*dT*kA*k[5mC]*eT; antisense) [compound 547829]”, the “% inhibition” value is on record as 59%. Take “547830 (eG*e[5mC]*kA*d[5mC]*d[5mC]*dT*dG*dT*dT*d[5mC]*dG*dA*dT*kG*kT*eA; antisense) [compound 547830]”: the “% inhibition” value came out at 74%. Then “547831 (e[5mC]*eT*kG*d[5mC]*dA*d[5mC]*d[5mC]*dT*dG*dT*dT*d[5mC]*dG*kA*kT*eG; antisense) [compound 547831]”, with 49%; and “547832 (eA*e[5mC]*kT*dG*d[5mC]*dA*d[5mC]*d[5mC]*dT*dG*dT*dT*d[5mC]*kG*kA*eT; antisense) [compound 547832]”, with 59%; and “547833 (eA*eA*k[5mC]*dT*dG*d[5mC]*dA*d[5mC]*d[5mC]*dT*dG*dT*dT*k[5mC]*kG*eA; antisense) [compound 547833]”, with 40%. As to “547834 (eA*eA*kA*d[5mC]*dT*dG*d[5mC]*dA*d[5mC]*d[5mC]*dT*dG*dT*kT*k[5mC]*eG; antisense) [compound 547834]”, the “% inhibition” value amounted to 63%. Then “547836 (eT*e[5mC]*k[5mC]*dA*dG*dA*dA*dA*d[5mC]*dT*dG*d[5mC]*dA*k[5mC]*k[5mC]*eT; antisense) [compound 547836]”, with 50%.

Regarding “547837 (eT*eG*kT*d[5mC]*d[5mC]*dA*dG*dA*dA*dA*d[5mC]*dT*dG*k[5mC]*kA*e[5mC]; antisense) [compound 547837]”, the “% inhibition” value was determined as 51%. For “547838 (e[5mC]*eT*kT*d[5mC]*dA*dA*dG*dG*dA*dA*dT*dG*dT*k[5mC]*k[5mC]*eA; antisense) [compound 547838]” the value was 45%.

On to “547839 (eG*e[5mC]*kT*dT*d[5mC]*dA*dA*dG*dG*dA*dA*dT*dG*kT*k[5mC]*e[5mC]; antisense) [compound 547839]”, for which the “% inhibition” value was determined as 35%.

For the substance “547840 (antisense eT*eT*kG*d[5mC]*dT*dT*d[5mC]*dA*dA*dG*dG*dA*dA*kT*kG*eT) [compound 547840]”, the “% inhibition” value was 36%. As to “547841 (antisense e[5mC]*eA*k[5mC]*dA*dT*dT*dG*d[5mC]*dT*dT*d[5mC]*dA*dA*kG*kG*eA) [compound 547841]”, the “% inhibition” value worked out at 42%. For “547842 (antisense eG*eA*kT*dG*dA*d[5mC]*d[5mC]*dA*d[5mC]*dA*dT*dT*dG*k[5mC]*kT*eT) [compound 547842]” the value was 10%.
